In PMC4872164, “Therapeutic Blockade of Immune Complex-Mediated Glomerulonephritis by Highly Selective Inhibition of Bruton’s Tyrosine Kinase” (Scientific Reports, 2016) one finds IC50 data, which are given here for one substance.

The assay has as its target Bruton's tyrosine kinase (BTK) (Homo sapiens, UniProt Q06187). Nature of the assay: TR-FRET LanthaScreen binding assay (affinity, kinact/Ki […] ^-1 s^-1); BTK enzyme IC50; co-crystallization and mass spectrometry (not shown). The format is biochemical.

Sequence of Bruton's tyrosine kinase (BTK) (Q06187 2-659): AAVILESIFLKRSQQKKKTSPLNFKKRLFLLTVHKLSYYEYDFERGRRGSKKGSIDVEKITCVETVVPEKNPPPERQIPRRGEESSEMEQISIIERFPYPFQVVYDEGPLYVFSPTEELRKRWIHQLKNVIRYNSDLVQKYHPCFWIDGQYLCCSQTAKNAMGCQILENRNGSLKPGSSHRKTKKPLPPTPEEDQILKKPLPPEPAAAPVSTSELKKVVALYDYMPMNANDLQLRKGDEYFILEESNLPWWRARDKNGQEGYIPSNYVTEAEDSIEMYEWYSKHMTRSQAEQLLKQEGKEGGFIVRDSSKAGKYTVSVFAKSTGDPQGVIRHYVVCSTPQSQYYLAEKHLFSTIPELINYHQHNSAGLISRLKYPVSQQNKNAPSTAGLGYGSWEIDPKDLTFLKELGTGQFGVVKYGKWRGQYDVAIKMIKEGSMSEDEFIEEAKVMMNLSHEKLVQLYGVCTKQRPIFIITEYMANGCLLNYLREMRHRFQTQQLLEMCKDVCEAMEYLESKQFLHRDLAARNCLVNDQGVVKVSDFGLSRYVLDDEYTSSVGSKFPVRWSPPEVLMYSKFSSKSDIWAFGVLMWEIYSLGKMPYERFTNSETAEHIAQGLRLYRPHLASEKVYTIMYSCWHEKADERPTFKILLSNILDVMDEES

A word on the IC50: it is the midpoint of a concentration-inhibition curve. Low values mean greater potency in that assay, high ones weaker potency in that assay. BI-BTK-1 came in with an IC50 of 900 pM.
